These results are taken from publication PMC5587909, “Inhibition of the ATP Synthase Eliminates the Intrinsic Resistance of Staphylococcus aureus towards Polymyxins” (mBio, 2017).

In one assay the test system is S. aureus JE2 (WT). Put plainly: Kill curve experiment, polymyxin B with or without oligomycin A. In kind it is cell-based, Staphylococcus aureus. To be noted: WT JE2 in TSB; PMB alone at 0.25× MIC of WT; 4 h. An excerpt: The ATP synthase is a well-described protein complex, and multiple inhibitors have been identified that interfere with its function—e.g., the macrolide oligomycin A ([32]). […] The combinatory efficacy of PMB and oligomycin A is similar to the observed killing efficacy of PMB against the atpA mutant.
FIG 4 Improved killing efficacy of PMB upon inhibition of the ATP synthase. […] The data represent the average from three measurements, with error bars showing 95% confidence intervals.
From overnight cultures of S. aureus JE2 and the derivative atpA mutant, 100 μl was diluted into 900 μl fresh TSB medium in a Falcon tube and grown for 1 h for the cells to reach the early exponential phase. After 1 h, the cultures were diluted into 10 ml fresh TSB medium in 100-ml Erlenmeyer flasks, reaching an initial cell count of approximately 10^6 cells/ml. Oligomycin A (Sigma) was added to flasks as indicated at a concentration of 8 μg/ml. […] CFU were determined on TSA plates before addition of oligomycin A (time zero [T0]), before addition of polymyxin B (time 30 min [T30]), and every hour for the following 4 h.

Assay [1] has as its system S. aureus JE2 graR transposon mutant (SAUSA300_0645). Description: microbe, parasite or virus in culture. Particulars: Etest on TSA. An excerpt: (§1) Staphylococcus aureus is intrinsically resistant to the clinically approved cationic antimicrobial peptides polymyxin B (PMB) and colistin ([1], [16]). […] The MIC for PMB was subsequently determined using Etests for the identified mutants.
(§2) The strains used in this study include S. aureus strain JE2 (plasmid-cured derivative of USA300 LAC) and all derivative strains within the Nebraska Transposon Mutant Library (NTML), consisting of 1,920 unique transposon mutants with inactivation of nonessential genes ([15]). The bursa aurealis transposon used to create the collection contains the resistance cassette ermB, which confers resistance to erythromycin ([15]). Additionally we used S. aureus SA113 and two derivatives, SA113 ΔdltA ([9]) and SA113 ΔmprF ([10]). All bacterial strains were cultured at 37°C in tryptic soy broth (TSB) or on tryptic soy agar (TSA), with antimicrobial agents added as indicated. Two methods have been employed to determine MICs to various antimicrobial agents. (i) A 2-fold broth microdilution assay in TSB (100 µl) with an initial inoculum of approximately 5 × 10^5 cells/ml was employed to determine the MICs of polymyxin B sulfate (Sigma), gallidermin (Santa Cruz Biotechnology), nisin (Sigma), bacitracin (Sigma), and LL-37 (Isca Biochemicals). […] The MIC was determined upon incubation at 37°C for 22 h. […]

Assay [2] relates to S. aureus JE2 atpA transposon mutant (SAUSA300_2060). Description: microbe, parasite or virus in culture. Particulars: Etest on TSA.
From the text: as §1, §2

Assay [3] deals with S. aureus JE2 (wild type). Put plainly: microbe, parasite or virus in culture. Particulars: Etest on TSA, 37°C, 22 h; wild type S. aureus JE2.
From the text: as §1, §2

Assay [4] has as its system S. aureus JE2 vraF transposon mutant (SAUSA300_0647). Put plainly: microbe, parasite or virus in culture. To be noted: Etest on TSA.
From the text: as §1, §2

Assay [5] has as its system S. aureus JE2 vraG transposon mutant (SAUSA300_0648). Put plainly: microbe, parasite or virus in culture. Particulars: Etest on TSA.
From the text: as §1, §2

For assay [6], the system named is S. aureus SA113 ΔmprF mutant. It counts as cell-based, Staphylococcus aureus. Particulars: MIC method not given, 37°C, 22 h. From the text:
(§3) Lysinylation of phosphatidylglycerols therefore seems to mediate selective protection against certain cationic antimicrobial peptides.
(§4) The strains used in this study include S. aureus strain JE2 (plasmid-cured derivative of USA300 LAC) and all derivative strains within the Nebraska Transposon Mutant Library (NTML), consisting of 1,920 unique transposon mutants with inactivation of nonessential genes ([15]). The bursa aurealis transposon used to create the collection contains the resistance cassette ermB, which confers resistance to erythromycin ([15]). Additionally we used S. aureus SA113 and two derivatives, SA113 ΔdltA ([9]) and SA113 ΔmprF ([10]). All bacterial strains were cultured at 37°C in tryptic soy broth (TSB) or on tryptic soy agar (TSA), with antimicrobial agents added as indicated. Two methods have been employed to determine MICs to various antimicrobial agents. (i) A 2-fold broth microdilution assay in TSB (100 µl) with an initial inoculum of approximately 5 × 10^5 cells/ml was employed to determine the MICs of polymyxin B sulfate (Sigma), gallidermin (Santa Cruz Biotechnology), nisin (Sigma), bacitracin (Sigma), and LL-37 (Isca Biochemicals). (ii) An Etest (BioMérieux) performed on TSA plates was employed to determine MICs for polymyxin B, colistin, ciprofloxacin, oxacillin, linezolid, gentamicin, vancomycin, and daptomycin. […]

Assay [7] relates to S. aureus SA113 (wild type). In kind it is cell-based, Staphylococcus aureus. Particulars: MIC method not given, 37°C, 22 h.
From the text: as §3, §4

The subject of assay [8] is S. aureus SA113 ΔdltA mutant. In kind it is cell-based, Staphylococcus aureus. Particulars: MIC method not given, 37°C, 22 h. From the text: The strains used in this study include S. aureus strain JE2 (plasmid-cured derivative of USA300 LAC) and all derivative strains within the Nebraska Transposon Mutant Library (NTML), consisting of 1,920 unique transposon mutants with inactivation of nonessential genes ([15]). The bursa aurealis transposon used to create the collection contains the resistance cassette ermB, which confers resistance to erythromycin ([15]). Additionally we used S. aureus SA113 and two derivatives, SA113 ΔdltA ([9]) and SA113 ΔmprF ([10]). All bacterial strains were cultured at 37°C in tryptic soy broth (TSB) or on tryptic soy agar (TSA), with antimicrobial agents added as indicated. Two methods have been employed to determine MICs to various antimicrobial agents. (i) A 2-fold broth microdilution assay in TSB (100 µl) with an initial inoculum of approximately 5 × 10^5 cells/ml was employed to determine the MICs of polymyxin B sulfate (Sigma), gallidermin (Santa Cruz Biotechnology), nisin (Sigma), bacitracin (Sigma), and LL-37 (Isca Biochemicals). (ii) An Etest (BioMérieux) performed on TSA plates was employed to determine MICs for polymyxin B, colistin, ciprofloxacin, oxacillin, linezolid, gentamicin, vancomycin, and daptomycin. The MIC was determined upon incubation at 37°C for 22 h. When indicated, the Etest (BioMérieux) was performed on Mueller-Hinton agar plates (cation adjusted for calcium and magnesium).

SMILES strings stand for the structures. ≈ marks a conversion by molar mass, not a printed value. Bridge positions count the residues as written; N and C are the ends. Square brackets hold non-standard residues; d marks the D form. Peptide text beside a SMILES is read from it. * marks the point of attachment. X1 = CC[C@H](C)CCCCC(=O)*; Dab = NCC[C@H](N)C(=O)O

`CC[C@H](C)CCCCC(=O)N[C@@H](CCN)C(=O)N[C@H](C(=O)N[C@@H](CCN)C(=O)N[C@H]1CCNC(=O)[C@H]([C@@H](C)O)NC(=O)[C@H](CCN)NC(=O)[C@H](CCN)NC(=O)[C@H](CC(C)C)NC(=O)[C@@H](Cc2ccccc2)NC(=O)[C@H](CCN)NC1=O)[C@@H](C)O` [Polymyxin B, polymyxin B] (X1-[Dab]T[Dab][Dab][Dab][dF]L[Dab][Dab]T; lactam 4-C (inferred); N-terminus assumed): the “killing efficacy (CFU over time)” value in the assay on S. aureus JE2 (WT) is on record as “continued growth”. The MIC in assay [1] (37°C, 22 h, graR mutant) came to 16 µg/mL (≈ 13.3 µM); in assay [2] (37°C, 22 h, atpA mutant) it was 16 µg/mL (≈ 13.3 µM); in assay [3], 128 µg/mL (≈ 106 µM); in assay [4] (37°C, 22 h, vraF mutant), 16 µg/mL (≈ 13.3 µM); in [5] (37°C, 22 h, vraG mutant), 16 µg/mL (≈ 13.3 µM); in assay [6], 384 µg/mL (≈ 319 µM). The MIC in assay [7] was determined as 512 µg/mL (≈ 425 µM); in [8], 48 µg/mL (≈ 39.9 µM). The “fold reduction in MIC / increased sensitivity relative to WT” value in [1] (graR mutant vs WT JE2), in assay [2] (atpA mutant vs WT JE2), in assay [4] (vraF mutant vs WT JE2) and in assay [5] (vraG mutant vs WT JE2) was 8 fold throughout.
